Where two headings read alike, the source gives them in different places.
Key:
Format in all cases: cell-based
[1] = system: phosphorylation of AKT (pAKT) in SKBR3 cells express WT PI3Ka; assay: In vitro cell pAKT (Ser473) HTRF, SKBR3 cells; settings: cellular pAKT
Outline: (§1)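 Cells seeded on plates pre-stamped with 10-point compound dilutions, then grown 6 h at 37 °C (T47D in RPMI/10% FBS/insulin; SKBR3 in McCoy's 5a/10% FBS). Lysates read for pAKT Ser473 by HTRF after overnight antibody incubation. Inhibition normalised to 0.1% DMSO and 10 uM alpelisib; IC50 by four-parameter fit.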

[2] = system: SKBR3 cells express WT PI3Ka; assay: In vitro cell proliferation, SKBR3 cells (CellTiter-Glo); settings: inhibition of proliferation
Outline: (§2)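 T47D cells in RPMI/10% FBS/insulin (0.2 units/mL) or SKBR3 in McCoys 5a/10% FBS, 1,500 cells/well, grown 72 h at 37 °C with 10-point compound dilutions. CellTiter-Glo luminescence; % inhibition normalised to 0.1% DMSO and 10 uM Alpelisib, EC50 from four-parameter curve fit.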

[3] = system: T47D cells expressing mutant PI3Ka (H1047R); assay: In vitro cell proliferation, T47D cells (CellTiter-Glo); settings: inhibition of proliferation, read-out: Avg T-47D EC50
Outline: as §2

[4] = system: phosphorylation of AKT (pAKT) in T47D cells expressing mutant PI3Ka (H1047R); assay: In vitro cell pAKT (Ser473) HTRF, T47D cells; settings: cellular pAKT, T47D cells, mutant PI3Ka (H1047R), 6 hours, read-out: Avg T-47D IC50
Outline: as §1

C[C@@H](Nc1ccccc1C(=O)O)c1cc(F)cc2c(=O)n(C)c(Br)cc12 [Example 555] showed an IC50 ([1]; Homo sapiens, SK-BR-3, 6 h) greater than 15000 nM, an EC50 ([2]; Homo sapiens, SK-BR-3, 72 h) greater than 15000 nM and an EC50 ([3]; Homo sapiens, T47D, 72 h) of 2000 to 15000 nM. It also gave an IC50 ([4]; Homo sapiens, T47D, 6 h) of 500 to 2000 nM.

Compound Cc1ccc(N[C@H](C)c2cc(F)cc3c(=O)n(C)c(-c4ccc(OCC(F)(F)F)nc4)cc23)c(C(=O)O)n1 [Example 557] has an IC50 ([1]; 6 hours) greater than 15000 nM, an EC50 ([2]; 72 hours) of 2000 to 15000 nM and an EC50 ([3]; 72 hours) of 500 to 2000 nM. It also gave an IC50 [4] of 1 to 500 nM.

In the case of C[C@@H](Nc1ccccc1C(=O)O)c1cc(F)cc2c(=O)n(C)c(I)cc12 [Example 559], the IC50 ([1]; Homo sapiens, SK-BR-3, 6 h) is reported as greater than 15000 nM, the EC50 ([2]; Homo sapiens, SK-BR-3, 72 h) is reported as greater than 15000 nM and the EC50 ([3]; Homo sapiens, T47D, 72 h) is reported as 500 to 2000 nM. For the same compound, the IC50 ([4]; Homo sapiens, T47D, 6 h) was 500 to 2000 nM.

With CC(Nc1ccccc1C(=O)O)c1cc(F)cc2c(=O)n(C)c(-c3cnc(-c4ccc(F)cc4F)c(F)c3)cc12 (stereo not shown) [Example 560] the IC50 ([1]; 6 hours) was greater than 15000 nM, the EC50 ([2]; 72 hours) was 2000 to 15000 nM and the EC50 ([3]; 72 hours) was 1 to 500 nM. It also gave an IC50 [4] of 1 to 500 nM.

With CC(Nc1ccccc1C(=O)O)c1cc(F)cc2c(=O)n(C)c(-c3ccc(OC4CC4)nc3)c(F)c12 (stereo not shown) [Example 561] the IC50 ([1]; 6 hours) was greater than 15000 nM, the EC50 ([2]; 72 hours) was greater than 15000 nM and the EC50 ([3]; 72 hours) was 1 to 500 nM. It also gave an IC50 [4] of 1 to 500 nM.

Work on Cc1ncc(F)cc1-c1ncc(-c2c(F)c3c([C@@H](C)Nc4ccccc4C(=O)O)cc(F)cc3c(=O)n2C)cc1F [Example 562] yielded an IC50 ([1]; Homo sapiens, SK-BR-3, 6 h) of 2000 to 15000 nM, an EC50 ([2]; Homo sapiens, SK-BR-3, 72 h) greater than 15000 nM and an EC50 ([3]; Homo sapiens, T47D, 72 h) of 1 to 500 nM. For the same compound, the IC50 ([4]; Homo sapiens, T47D, 6 h) was 1 to 500 nM.

For CC(Nc1ccccc1C(=O)O)c1cc(F)cc2c(=O)n(C)c(-c3cnc(OC4CC4)c(F)c3)c(F)c12 (stereo not shown) [Example 565], the IC50 ([1]; 6 hours) was greater than 15000 nM, the EC50 ([2]; 72 hours) was greater than 15000 nM and the EC50 ([3]; 72 hours) was 1 to 500 nM. It also gave an IC50 [4] of 1 to 500 nM.

C[C@@H](Nc1ccccc1C(=O)O)c1cc(F)cc2c(=O)n(C)c(-c3cnc(OCC(F)(F)F)s3)cc12 [Example 568] gave an IC50 ([1]; Homo sapiens, SK-BR-3, 6 h) greater than 15000 nM, an EC50 ([2]; Homo sapiens, SK-BR-3, 72 h) greater than 15000 nM and an EC50 ([3]; Homo sapiens, T47D, 72 h) of 1 to 500 nM. For the same compound, the IC50 ([4]; Homo sapiens, T47D, 6 h) was 1 to 500 nM.

C[C@@H](Nc1ccccc1C(=O)O)c1cc(F)cc2c(=O)n(C)c(-c3cnc(OCC(F)(F)F)c(F)c3)c(F)c12 [Example 569] gave an IC50 ([1]; Homo sapiens, SK-BR-3, 6 h) greater than 15000 nM, an EC50 ([2]; Homo sapiens, SK-BR-3, 72 h) of 2000 to 15000 nM and an EC50 ([3]; Homo sapiens, T47D, 72 h) of 500 to 2000 nM. The IC50 ([4]; Homo sapiens, T47D, 6 h) was 1 to 500 nM.

With C[C@@H](Nc1ccccc1C(=O)O)c1cc(F)cc2c(=O)n(C)c(C34CC(CC(F)(F)F)(C3)C4)cc12 [Example 570] the IC50 ([1]; Homo sapiens, SK-BR-3, 6 h) was greater than 15000 nM, the EC50 ([2]; Homo sapiens, SK-BR-3, 72 h) was greater than 15000 nM and the EC50 ([3]; Homo sapiens, T47D, 72 h) was 1 to 500 nM. For the same compound, the IC50 ([4]; Homo sapiens, T47D, 6 h) was 1 to 500 nM.

C[C@@H](Nc1ccccc1C(=O)O)c1cc(F)cc2c(=O)n(C)c(C34CC(C(F)(F)C(F)(F)F)(C3)C4)cc12 [Example 571] showed an IC50 ([1]; Homo sapiens, SK-BR-3, 6 h) greater than 15000 nM, an EC50 ([2]; Homo sapiens, SK-BR-3, 72 h) of 2000 to 15000 nM and an EC50 ([3]; Homo sapiens, T47D, 72 h) of 1 to 500 nM. For the same compound, the IC50 ([4]; Homo sapiens, T47D, 6 h) was 1 to 500 nM.

C[C@@H](Nc1ccccc1C(=O)O)c1cc(F)cc2c(=O)n(C)c(-c3cnc(-c4cnc(C(F)(F)F)nc4)c(F)c3)cc12 [Example 574] showed an IC50 ([1]; Homo sapiens, SK-BR-3, 6 h) greater than 15000 nM, an EC50 ([2]; Homo sapiens, SK-BR-3, 72 h) of 2000 to 15000 nM and an EC50 ([3]; Homo sapiens, T47D, 72 h) of 1 to 500 nM. For the same compound, the IC50 ([4]; Homo sapiens, T47D, 6 h) was 1 to 500 nM.

Work on C[C@@H](Nc1ccccc1C(=O)O)c1cc(F)cc2c(=O)n(C)c(-c3cnc(-c4ccnc(C(F)(F)F)n4)c(F)c3)cc12 [Example 575] yielded an IC50 ([1]; Homo sapiens, SK-BR-3, 6 h) greater than 15000 nM, an EC50 ([2]; Homo sapiens, SK-BR-3, 72 h) greater than 15000 nM and an EC50 ([3]; Homo sapiens, T47D, 72 h) of 2000 to 15000 nM. The IC50 ([4]; Homo sapiens, T47D, 6 h) was 500 to 2000 nM.

In the case of Cc1nc(C(F)(F)F)c(F)cc1-c1ncc(-c2cc3c([C@@H](C)Nc4ccccc4C(=O)O)cc(F)cc3c(=O)n2C)cc1F [Example 576], the IC50 ([1]; Homo sapiens, SK-BR-3, 6 h) is reported as greater than 15000 nM, the EC50 ([2]; Homo sapiens, SK-BR-3, 72 h) is reported as 2000 to 15000 nM and the EC50 ([3]; Homo sapiens, T47D, 72 h) is reported as 1 to 500 nM. The IC50 ([4]; Homo sapiens, T47D, 6 h) was 1 to 500 nM.

C[C@@H](Nc1ccccc1C(=O)O)c1cc(F)cc2c(=O)n(C)c(C34CC(c5ccc(F)cc5F)(C3)C4)cc12 [Example 578] gave an IC50 ([1]; Homo sapiens, SK-BR-3, 6 h) of 2000 to 15000 nM, an EC50 ([2]; Homo sapiens, SK-BR-3, 72 h) of 2000 to 15000 nM and an EC50 ([3]; Homo sapiens, T47D, 72 h) of 1 to 500 nM. It also gave an IC50 ([4]; Homo sapiens, T47D, 6 h) of 1 to 500 nM.

Compound C[C@@H](Nc1ccccc1C(=O)O)c1cc(F)cc2c(=O)n(C)c(-c3cnc(C4(CC(F)(F)F)CC4)nc3)cc12 [Example 579] has an IC50 ([1]; Homo sapiens, SK-BR-3, 6 h) greater than 15000 nM, an EC50 ([2]; Homo sapiens, SK-BR-3, 72 h) of 2000 to 15000 nM and an EC50 ([3]; Homo sapiens, T47D, 72 h) of 1 to 500 nM. It also gave an IC50 ([4]; Homo sapiens, T47D, 6 h) of 1 to 500 nM.

Source: US20260078103A1, “ISOQUINOLONES AS PI3K INHIBITORS” (OnKure, Inc., priority 2022, published 2026)
